The values below come from patent US10201624B2, “Triazine based radiopharmaceuticals and radioimaging agents” (Molecular Insight Pharmaceuticals, Inc., priority 2013, dated 2019).

In one data set the test system is LNCaP cell xenografts. The experiment in a line: tissue distribution of ^177Lu-labeled compounds in mice bearing LNCaP xenografts. It is filed as in vivo. To be noted: for concentration in kidneys compared with tumor: 4 hours post administration; for concentration in LNCap tumor: 24 hours and 96 hours post administration compared with 4 hours; for clearance from the kidneys: over a period of 96 hours. How it is done:
All animal studies were approved by the Institute for Animal Care and Use Committee in accordance with the guidelines set forth by the U.S. Public Health Service Policy on Humane Care and Use of Laboratory Animals. Mice were housed under standard conditions in approved facilities with 12 hour light/dark cycles and given food and water ad libitum. Male athymic NCr-nu/nu mice were purchased from Taconic. For inoculation in mice, LNCaP cells were resuspended at 10^7 cells/ml in a 1:1 mixture of cell culture medium:Matrigel (BD Biosciences). Each mouse was injected in the right flank with 0.25 ml of the cell suspension. Mice were used for tissue distribution studies when the tumors reached approximately 100-400 mm^3.
A quantitative analysis of the tissue distribution of ^177Lu-labeled compounds was performed in separate groups of male NCr-nu/nu mice bearing LNCaP cell xenografts. The compounds were administered via the tail vein as a bolus injection (approximately 10 μCi/mouse) in a constant volume of 0.05 mL. The animals (n=5/time point) were euthanized by asphyxiation with carbon dioxide at the indicated time points after injection. Tissues, for example, blood, heart, lungs, liver, spleen, kidneys, stomach, large and small intestines (with contents), testes, skeletal muscle, bone, brain, adipose, and tumor were dissected, excised, weighed wet, and counted in an automated γ-counter. Tissue time-radioactivity levels were expressed as percent injected dose per gram of tissue (% ID/g).

For a further data set, the system named is LNCaP xenografts. The experiment in a line: in vivo efficacy: inhibition of LNCaP tumor growth. Also on record: species or system mice. To be noted: 450 μCi per mouse, intravenous. As to the method:
FIG. 5 illustrates the in vivo efficacy of an exemplary lutetium complex of the invention to inhibit the growth of LNCaP tumors in mice. Arrest of tumor growth was determined by administering 450 μCi of the lutetium complex of (2S)-2-(3-((1S)-1-caroxy-5-(11-(4-(4-(dimethylamino)-6-((4-((1,4,7,10-tetrakis(carboxymethyl)-1,4,7,10-tetraazacyclododecan-2-yl)methyl)phenyl)amino)-1,3,5-triazin-2-yl)piperazin-1-yl)undecanamido)pentyl)ureido)pentanedioic acid to each mouse in the study group. Mice in the control group were administered saline. Tumor volumes in the test and control group of mice were measured twice weekly.
All animal studies were approved by the Institute for Animal Care and Use Committee in accordance with the guidelines set forth by the U.S. Public Health Service Policy on Humane Care and Use of Laboratory Animals. Mice were housed under standard conditions in approved facilities with 12 hour light/dark cycles and given food and water ad libitum. Male athymic NCr-nu/nu mice were purchased from Taconic. […]
Mice bearing LNCaP xenografts having an average volume of ˜100-500 mm^3, were randomly assigned to a control group or a treatment group (n=10 mice per group). […] Tumor dimensions were measured twice weekly with digital calipers and tumor volumes were calculated using the formula ([…]Π×width^2×length)/6. […]

For the next data set, the target named is T1, PSMA (Homo sapiens, UniProt Q04609).
T1 construct: from tissue; host or cells: in vivo: prostate tissue, lymph node and bone lesions of a subject having prostate cancer
T1 sequence (Q04609 whole entry): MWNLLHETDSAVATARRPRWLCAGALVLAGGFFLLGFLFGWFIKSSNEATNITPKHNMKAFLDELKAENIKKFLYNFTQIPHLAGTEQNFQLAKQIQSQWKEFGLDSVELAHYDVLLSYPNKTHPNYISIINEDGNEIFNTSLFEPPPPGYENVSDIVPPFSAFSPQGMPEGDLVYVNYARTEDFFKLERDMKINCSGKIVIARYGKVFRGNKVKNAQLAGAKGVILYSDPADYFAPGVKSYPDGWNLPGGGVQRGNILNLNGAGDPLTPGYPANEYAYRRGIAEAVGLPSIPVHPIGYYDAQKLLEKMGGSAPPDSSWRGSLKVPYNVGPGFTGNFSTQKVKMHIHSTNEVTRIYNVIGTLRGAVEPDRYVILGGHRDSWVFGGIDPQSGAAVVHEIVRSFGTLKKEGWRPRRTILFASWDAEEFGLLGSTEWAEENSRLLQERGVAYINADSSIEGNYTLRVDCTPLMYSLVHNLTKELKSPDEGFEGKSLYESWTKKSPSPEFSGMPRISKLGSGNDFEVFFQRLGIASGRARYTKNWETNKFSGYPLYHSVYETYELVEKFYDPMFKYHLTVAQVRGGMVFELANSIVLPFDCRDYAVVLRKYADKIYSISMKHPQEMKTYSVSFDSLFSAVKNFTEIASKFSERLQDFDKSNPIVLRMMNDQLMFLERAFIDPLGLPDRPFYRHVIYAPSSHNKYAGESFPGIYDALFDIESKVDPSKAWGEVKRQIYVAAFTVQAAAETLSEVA
In words: ^68Ga-PSMA PET/CT imaging of a subject having prostate cancer. It is filed as in vivo. How it is done:
According to another embodiment of the invention, radiometal complexes of Formula I and Formula II compounds were used for imaging prostate cancer and accompanying metastasis in a subject. Briefly, ^68Ga was complexed to (2S)-2-(3-((1S)-1-carboxy-5-(11-(4-(4-(dimethylamino)-6-((4-((1,4,7,10-tetrakis(carboxymethyl)-1,4,7,10-tetraazacyclododecan-2-yl)methyl)phenyl)amino)-1,3,5-triazin-2-yl)piperazin-1-yl)undecanamido)pentyl)ureido)pentanedioic acid and the resultant complex was administered to a subject having prostate cancer. The subject was then imaged at 1 hour and 3 hours post administration of the inventive ^68Ga complex using, for example, a ^68Ga-PSMA PET/CT scanner. […] Overall, this imaging study supports the use of radiometal complexes of the inventive compounds as suitable agents for radioimaging of cancers, such as prostate cancer.

Where [1] appears, read: ^177Lu complex, LNCap xenograft mice, tail vein bolus.
[2] abbreviates: extended study, 3 weeks post administration.
Where [3] appears, read: extended study, between 24 hours to 96 hours.

As for `O=C(O)CC[C@H](NC(=O)N[C@@H](CCCCNC(=O)CCCCCCCCCCN1CCN(c2nc(Nc3ccc(CC4CN(CC(=O)O)CCN(CC(=O)O)CCN(CC(=O)O)CCN4CC(=O)O)cc3)nc(N3CCCCC3)n2)CC1)C(=O)O)C(=O)O` (stereo partly drawn) [complex (B), ^177Lu-complex of (2S)-2-(3-((1S)-1-carboxy-5-(11-(4-(4-(piperidin-1-yl)-6-((4-((1,4,7,10-tetrakis(carboxymethyl)-1,4,7,10-tetraazacyclododecan-2-yl)methyl)phenyl)amino)-1,3,5-triazin-2-yl)piperazin-1-yl)undecanamido)pentyl)ureido)pentanedioic acid, metal not drawn], in the data set with LNCaP cell xenografts, the “concentration in kidneys compared with tumor” value is on record as “greater in kidneys than in tumor”, the “concentration in LNCap tumor” value was “remained unchanged” and the “clearance from the kidneys” value is “rapidly cleared from the kidneys”. The “concentration in kidneys and tumor compared with other tissues” value (“concentration … compared with other tissues” below) in the data set with LNCaP cell xenografts (setting [1]) was “concentrate in kidneys and tumor to a greater extent than other tissues”.

On to `O=C(O)CCOCCOCCNc1nc(Nc2ccc(CC3CN(CC(=O)O)CCN(CC(=O)O)CCN(CC(=O)O)CCN3CC(=O)O)cc2)nc(N2CCN(CCCCCCCCCCC(=O)NCCCC[C@H](NC(=O)N[C@@H](CCC(=O)O)C(=O)O)C(=O)O)CC2)n1` (stereo partly drawn) [complex (A), ^177Lu-complex of (2S)-2-(3-(1-carboxy-5-(11-(4-(4-((2-(2-(2-carboxyethoxy)ethoxy)ethyl)amino)-6-((4-((1,4,7,10-tetrakis(carboxymethyl)-1,4,7,10-tetraazacyclododecan-2-yl)methyl)phenyl)amino)-1,3,5-triazin-2-yl)piperazin-1-yl)undecanamido)pentyl)ureido)pentanedioic acid, metal not drawn], for which, in the data set on LNCaP cell xenografts, the “concentration in kidneys compared with tumor” value was “greater in kidneys than in tumor”, the “concentration in LNCap tumor” value was “remained unchanged” and the “clearance from the kidneys” value was “rapidly cleared from the kidneys”. Moreover, the “concentration … compared with other tissues” value in the data set with LNCaP cell xenografts (setting [1]) is “concentrate in kidneys and tumor to a greater extent than other tissues”.

For “^177Lu-complex of (21S,25S)-8,15,23-trioxo-1-(4-((1,4,7,10-tetrakis(carboxymethyl)-1,4,7,10-tetraazacyclododecan-2-yl)methyl)phenylamino)-1 thioxo-2,7,16,22,24-pentaazaheptacosane-21,25,27-tricarboxylic acid [complex (C), reference compound]”, in the data set on LNCaP cell xenografts, the “concentration in kidneys compared with tumor” value is “greater in kidneys than in tumor” and the “concentration in LNCap tumor” value is “decreases”. Besides, in the data set with LNCaP cell xenografts (setting [1]), the “concentration … compared with other tissues” value was “concentrate in kidneys and tumor to a greater extent than other tissues”.

For `CN(C)c1nc(Nc2ccc(CC3CN(CC(=O)O)CCN(CC(=O)O)CCN(CC(=O)O)CCN3CC(=O)O)cc2)nc(N2CCN(CCCCCCCCCCC(=O)NCCCC[C@H](NC(=O)N[C@@H](CCC(=O)O)C(=O)O)C(=O)O)CC2)n1` (stereo partly drawn) [complex (D), ^177Lu-complex of (2S)-2-(3-((1S)-1-carboxy-5-(11-(4-(4-(dimethylamino)-6-((4-((1,4,7,10-tetrakis(carboxymethyl)-1,4,7,10-tetraazacyclododecan-2-yl)methyl)phenyl)amino)-1,3,5-triazin-2-yl)piperazin-1-yl)undecanamido)pentyl)ureido)pentanedioic acid, metal not drawn], the “concentration … compared with other tissues” value in the data set on LNCaP cell xenografts (extended biodistribution study, shorter time intervals post administration) was “concentrates to a greater extent in kidneys and tumor than other tissues”. The “intracellular concentration in LNCaP tumor cells” value in the data set with LNCaP cell xenografts (extended study, 1 week post administration) was “no appreciable change”. The intrarenal concentration entry with LNCaP cell xenografts (extended study, 1 week post administration compared with within eight hours) was “significantly lower”. Moreover, in the data set with LNCaP cell xenografts (setting [2]), the “decrease in tumor concentration compared with decrease in intrarenal concentration” value is recorded as “less compared to the decrease in the intrarenal concentration” and the intratumoral concentration entry was “decrease”. Also, in the data set on LNCaP cell xenografts (setting [3]), the concentration in kidney result was “decreases” and the concentration in tumor entry is listed as “no observable change”. In addition, the “concentration in kidneys and tumor as a function of time” value in the data set on LNCaP cell xenografts (extended study, first eight hours post administration) is “gradual increase”. Further, in the data set on LNCaP xenografts, the “LNCaP tumor volumes compared with volume at the start of the study” value is reported as “decrease to values lower than the tumor volume at the start of the study”. In the data set on LNCaP xenografts (measured twice weekly), the “tumor volumes compared with saline control group” value was “significantly lower”.

“^68Ga complex of (2S)-2-(3-((1S)-1-carboxy-5-(11-(4-(4-(dimethylamino)-6-((4-((1,4,7,10-tetrakis(carboxymethyl)-1,4,7,10-tetraazacyclododecan-2-yl)methyl)phenyl)amino)-1,3,5-triazin-2-yl)piperazin-1-yl)undecanamido)pentyl)ureido)pentanedioic acid [Example 17]”: the “tissue accumulation in radiographic image” value at PSMA (FIG. 6) was “accumulates in the lacrimal and salivary glands, kidney, liver, and urinary bladder”. At PSMA (imaged at 1 hour and 3 hours post administration), the “PSMA specific lesions in radiographic image” value is “detected in the lymph nodes and bone, in addition to the prostate tissue itself”. Also, the “imaging agent visible in bladder” value on PSMA (visible at hour 1) is reported as “cleared by the 3-hour scan”.
